Literature values in patent US20060122162A1, “Methods of using temozolomide formulation intrathecally in the treatment of cancers” (Schering Corporation, priority 2004, published 2006).

Legend:
[1] = test system: advanced melanoma

Structure (SMILES): Cn1nnc2c(C(N)=O)ncn2c1=O [Temozolomide, 3,4-dihydro-3-methyl-4-oxoimidazo-[5,1-d]-1,2,3,4-tetrazin-8-carboximide]
- solubility in water: water-insoluble
- patients in whom clinical responses were achieved ([1]; patients having advanced melanoma, Newlands et al., Br J Cancer 1992): 17%
- patients in whom a clinical response was achieved ([1]; patients with advanced melanoma, Bleehan et al., Journal of Clinical Oncology 1995): 21%
